The record followed here is ChEMBL document CHEMBL1201862, “PubChem BioAssay data set” (2004).

Among the test systems are HCT-15; HOP-62; HOP-92; Hs-578T; KM12; M14; MOLT-4; NCI/ADR-RES; OVCAR-5; OVCAR-8; RPMI-8226; SF-539; SK-MEL-5; SK-OV-3; SNB-19; SR; SW-620; Malme-3M; NCI-H226; RXF 393.
Holding throughout (assay): growth of human tumour cells (NCI), 48 h

The structures appear in SMILES notation.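 Test compounds were applied to cells in 96-well plates for 48 hours at 5 doses. GI50 = concentration required for 50% inhibition of growth.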 Calls of active or inactive are those of the source. Rule as the data show it: active = GI50 up to about 1.1 µM and inactive = higher. Bounds are passed on as bounds.

Consider `CN(C)c1ccc(C=C2N=C(c3ccccc3)N(c3cc(C(=O)c4ccccc4)ccc3N3C(=O)/C(=C/c4ccc(N(C)C)cc4)N=C3c3ccccc3)C2=O)cc1`, for which the GI50 is 4.49 µM with HCT-15; 20.7 µM (inactive) in the assay with HOP-62; > 100 µM (inactive) in the assay with HOP-92; 4.2 µM (inactive) in the assay on Hs-578T; 3.71 µM (inactive) in the assay with KM12; 4.95 µM (inactive) in the assay on M14. Besides, the GI50 with MOLT-4 was 3.38 µM (inactive); in the assay on NCI/ADR-RES, 4.06 µM (inactive); in the assay with OVCAR-5, 35.5 µM (inactive); with OVCAR-8, 11.5 µM (inactive); in the assay with RPMI-8226, 3.01 µM (inactive); in the assay on SF-539 it was 2.34 µM (inactive). The GI50 was 3.42 µM (inactive) in the assay with SK-MEL-5; 4.75 µM (inactive) with SK-OV-3; 7.94 µM (inactive) in the assay with SNB-19; 3.3 µM (inactive) with SR; 5.32 µM (inactive) with SW-620.

Regarding `CCCCCCCCC/C=C1/CC(CO)(COC(=O)c2ccccc2)OC1=O` (configuration not stated), the GI50 is 16.3 µM in the assay with HCT-15; 4.92 µM (inactive) with HOP-62; 1.61 µM (inactive) in the assay on HOP-92; 3.69 µM (inactive) in the assay with Hs-578T; 16.7 µM (inactive) in the assay with KM12; 14 µM (inactive) in the assay with M14. Besides, the GI50 in the assay with MOLT-4 is 4.98 µM (inactive); in the assay with Malme-3M it was 6.92 µM (inactive); in the assay on NCI-H226, 10.5 µM (inactive); in the assay with NCI/ADR-RES, 15.5 µM (inactive); with OVCAR-5 it was 12.2 µM (inactive); in the assay with RXF 393, 15.6 µM (inactive). Also, the GI50 was 20.4 µM (inactive) in the assay with SF-539; 3.78 µM (inactive) in the assay with SK-MEL-5; 18.6 µM (inactive) in the assay on SK-OV-3; 15.4 µM (inactive) in the assay with SNB-19; 17.9 µM (inactive) with SR; 14.4 µM (inactive) with SW-620.

Regarding `COC(=O)c1ccccc1C#CCCCOS(C)(=O)=O`, the GI50 is greater than 10 µM in the assay with HCT-15; > 10 µM (inactive) with HOP-62; > 10 µM (inactive) in the assay with Hs-578T; > 10 µM (inactive) in the assay on KM12; > 10 µM (inactive) in the assay with M14; > 10 µM (inactive) in the assay with MOLT-4. The GI50 with Malme-3M, in the assay with NCI-H226, with NCI/ADR-RES, in the assay on OVCAR-5, in the assay on OVCAR-8 and in the assay on RPMI-8226 was > 10 µM (inactive) in each case. In addition, the GI50 in the assay with RXF 393, with SF-539, with SK-MEL-5, in the assay with SK-OV-3, with SNB-19 and in the assay with SR was > 10 µM (inactive) in each case. For the same compound, the GI50 in the assay with SW-620 is > 10 µM (inactive).

Take `COc1ccc(/C=C/NC=O)cc1`: the GI50 in the assay with HCT-15 is greater than 100 µM; in the assay on HOP-62, > 100 µM (inactive); with Hs-578T, > 100 µM (inactive); in the assay on KM12, > 100 µM (inactive); with M14 it was > 100 µM (inactive); with MOLT-4, > 100 µM (inactive). For the same compound, the GI50 with Malme-3M, in the assay on NCI-H226, in the assay with NCI/ADR-RES, in the assay on OVCAR-5, with OVCAR-8 and with RPMI-8226 was > 100 µM (inactive) throughout. In addition, the GI50 in the assay with RXF 393, in the assay on SF-539, in the assay on SK-MEL-5, in the assay with SK-OV-3, in the assay with SNB-19 and with SR was > 100 µM (inactive) in each case. For the same compound, in the assay on SW-620, the GI50 was > 100 µM (inactive).

Take `Cc1ccc(CS(=O)(=O)C/N=C2\Sc3ccccc3N\C2=C/C(=O)c2ccc(Cl)cc2)cc1`: the GI50 is greater than 10 µM in the assay with HCT-15; 8.22 µM (inactive) in the assay on HOP-62; > 10 µM (inactive) in the assay with HOP-92; 9.55 µM (inactive) with Hs-578T; > 10 µM (inactive) with KM12; > 10 µM (inactive) with M14. For the same compound, the GI50 is 6.08 µM (inactive) in the assay on MOLT-4; > 10 µM (inactive) with Malme-3M; > 10 µM (inactive) with NCI/ADR-RES; > 10 µM (inactive) in the assay with OVCAR-5; > 10 µM (inactive) with OVCAR-8; > 10 µM (inactive) in the assay with RPMI-8226. For the same compound, the GI50 with SF-539, with SK-MEL-5, in the assay with SK-OV-3, in the assay on SNB-19, in the assay with SR and in the assay with SW-620 was > 10 µM (inactive) throughout.

In the case of `COc1ccc(C2c3cc4c(cc3C(O)C3CCC(=O)N23)OCO4)cc1` (configuration not stated), the GI50 in the assay with HCT-15 was greater than 100 µM; in the assay with HOP-62 it was > 100 µM (inactive); in the assay with HOP-92, > 100 µM (inactive); in the assay on Hs-578T it was > 100 µM (inactive); in the assay on KM12, > 100 µM (inactive); in the assay on M14, > 100 µM (inactive). Further, the GI50 in the assay with MOLT-4, in the assay with Malme-3M, with NCI-H226, with NCI/ADR-RES, in the assay on OVCAR-5 and in the assay with OVCAR-8 was > 100 µM (inactive) in each case. Further, the GI50 in the assay on RPMI-8226, with SF-539, in the assay with SK-MEL-5, with SK-OV-3, in the assay on SNB-19 and with SR was > 100 µM (inactive) throughout. Moreover, the GI50 in the assay with SW-620 is > 100 µM (inactive).

`CN(c1c(Cl)cccc1Cl)S(=O)(=O)c1ccccc1[N+](=O)[O-]`: the GI50 with HCT-15 was greater than 100 µM; in the assay with HOP-62, > 100 µM (inactive); with Hs-578T it was > 100 µM (inactive); in the assay on KM12, > 100 µM (inactive); in the assay with M14, > 100 µM (inactive); with MOLT-4, > 100 µM (inactive). Further, the GI50 in the assay on Malme-3M, in the assay on NCI-H226, in the assay on NCI/ADR-RES, in the assay with OVCAR-5, in the assay with OVCAR-8 and in the assay on RPMI-8226 was > 100 µM (inactive) throughout. Also, the GI50 with RXF 393, with SF-539, in the assay on SK-OV-3, in the assay with SNB-19, in the assay with SR and in the assay with SW-620 was > 100 µM (inactive) in each case.

Regarding `Cc1cn(C2CC(N=[N+]=[N-])C(CO[Si](C)(C)C(C)(C)C)O2)c(=O)[nH]c1=O` (configuration not stated), the GI50 was 18.3 µM with HCT-15; 16.4 µM (inactive) in the assay with HOP-62; 17.6 µM (inactive) in the assay on Hs-578T; 15.8 µM (inactive) with KM12; 21.4 µM (inactive) in the assay on M14; 26.7 µM (inactive) with MOLT-4. Further, the GI50 in the assay with Malme-3M is 14.3 µM (inactive); in the assay with NCI-H226, 14.9 µM (inactive); with NCI/ADR-RES, 16.6 µM (inactive); with OVCAR-5 it was 23 µM (inactive); in the assay with OVCAR-8 it was 19.4 µM (inactive); in the assay with RPMI-8226 it was 17.9 µM (inactive). In addition, the GI50 in the assay with RXF 393 was 15.5 µM (inactive); with SF-539, 18 µM (inactive); with SK-MEL-5, 18.5 µM (inactive); with SK-OV-3, 18.4 µM (inactive); in the assay on SNB-19, 19.8 µM (inactive); with SR, 23.3 µM (inactive). The GI50 with SW-620 was 16.9 µM (inactive).

Consider `CCOC(=O)COc1c(OC)cc(C2C3=C(COC3=O)Oc3cc4c(cc32)OCO4)cc1OC` (configuration not stated), for which the GI50 in the assay on HCT-15 is 0.502 µM; with HOP-62 it was 2.16 µM (inactive); in the assay on HOP-92 it was 14.6 µM (inactive); with Hs-578T, 4.51 µM (inactive); in the assay on KM12, 0.304 µM (active); with M14, 3.03 µM (inactive). The GI50 in the assay with MOLT-4 was 0.417 µM (active); with Malme-3M, 57.8 µM (inactive); with NCI-H226, > 54 µM (inactive); with NCI/ADR-RES, 3.37 µM (inactive); in the assay with OVCAR-5, > 84.1 µM (inactive); in the assay on OVCAR-8 it was 5.69 µM (inactive). Moreover, the GI50 is 0.255 µM (active) in the assay on RPMI-8226; 3.57 µM (inactive) in the assay on SF-539; 0.244 µM (active) in the assay on SK-MEL-5; 3.17 µM (inactive) with SK-OV-3; 13 µM (inactive) in the assay with SNB-19; 0.995 µM (active) in the assay on SR. Moreover, the GI50 with SW-620 is 0.476 µM (active).

With `Cc1ccc2c(=O)c3cccc(CC(=O)O)c3[nH]c2c1C`, the GI50 with HCT-15 was greater than 100 µM; in the assay with HOP-62, > 100 µM (inactive); in the assay with HOP-92, > 100 µM (inactive); with Hs-578T it was 72.1 µM (inactive); in the assay with KM12, > 100 µM (inactive); in the assay with M14, > 100 µM (inactive). The GI50 in the assay with MOLT-4, with Malme-3M, with NCI-H226, in the assay on NCI/ADR-RES, with OVCAR-8 and with RPMI-8226 was > 100 µM (inactive) each time. The GI50 in the assay with SF-539 is > 100 µM (inactive); in the assay with SK-MEL-5 it was 33.3 µM (inactive); with SK-OV-3, > 100 µM (inactive); in the assay on SNB-19 it was > 100 µM (inactive); in the assay with SR, > 100 µM (inactive); in the assay with SW-620, > 100 µM (inactive).

Turning to `CNc1ncnc2c1ncn2C1C=CC(COS(N)(=O)=O)C1` (configuration not stated), the GI50 in the assay with HCT-15 is greater than 100 µM; in the assay with HOP-62 it was > 100 µM (inactive); with HOP-92, > 100 µM (inactive); in the assay with Hs-578T, > 100 µM (inactive); with KM12, > 100 µM (inactive); in the assay with M14, > 100 µM (inactive). Also, the GI50 in the assay on MOLT-4, in the assay on Malme-3M, in the assay with NCI/ADR-RES, in the assay on OVCAR-8, in the assay with RPMI-8226 and in the assay with RXF 393 was > 100 µM (inactive) each time. Moreover, the GI50 in the assay with SF-539, in the assay on SK-MEL-5, in the assay with SK-OV-3, with SNB-19, in the assay with SR and with SW-620 was > 100 µM (inactive) in each case.
